Measurements: patent publication US20170143701A1, “CARBOHYDRATE METABOLISM-AMELIORATING AGENT” (SUNTORY HOLDINGS LIMITED, priority 2014, published 2017)

Tested on: C57/BL6J mice
Experiment: In vivo plasma GLP-1 level-increasing action: plasma active GLP-1 level (ELISA) after oral administration
Conditions: 10 mg/kg oral; for Significant difference (p < 0.05) vs control group, plasma active GLP-1 level: 30 minutes, Student's t-test; for Plasma active GLP-1 level (relative value to control group as 100), average value: blood 30 minutes after, 0.5% CMC-Na group = 100
Method: Seven-week-old male C57/BL6J mice were purchased from CLEA Japan, Inc. for use, and they were subjected to an experiment after 1 week of a habituation period.
After the habituation period, the mice were subjected to 5.5 hours of food deprivation and 2 hours of water deprivation. Thereafter, a cyclic dipeptide dissolved or suspended in a 0.5% CMC-Na aqueous solution in 10 mg/kg was orally administered to each mouse forcibly. After 30 minutes, the blood was collected from the abdominal vena cava under anesthesia, and 1 μL of heparin sodium and 1 μL of 10 mM Sitagliptin phosphate were added to each collected blood, which was then subjected to centrifugation at 8000 rpm for 10 minutes to recover the plasma, and the plasma active GLP-1 level was measured by using the ELISA kit. In the analysis, the active GLP-1 level for a group administered with 0.5% CMC-Na aqueous solution was defined as 100, and relative values thereto were used.

| Structure (SMILES) | Significant difference (p < 0.05) vs control group, plasma active GLP-1 level (Table 9, Experiment 4) | Plasma active GLP-1 level (relative value to control group as 100), average value (Table 9, Experiment 4) | Significant difference (p < 0.05) vs control group, plasma active GLP-1 level (Table 8, Experiment 3) | Plasma active GLP-1 level (relative value to control group as 100), average value (Table 8, Experiment 3) | other results |
| --- | --- | --- | --- | --- | --- |
| O=C1CNC(=O)[C@H](Cc2ccccc2)N1 [compound 8, Cyclo(Gly-Phe)] | No | 85 |  |  |  |
| CC(C)[C@@H]1NC(=O)[C@H](C(C)C)NC1=O [compound 11, Cyclo(Val-Val)] | No | 100 |  |  |  |
| CSCCC1NC(=O)C(CCSC)NC1=O (stereo not shown) [compound 12, Cyclo(Met-Met)] | No | 110 |  |  |  |
| O=C1NC(Cc2ccccc2)C(=O)N2CCCC12 (stereo not shown) [compound 13, Cyclo(Phe-Pro)] | No | 120 |  |  |  |
| CC[C@H](C)[C@@H]1NC(=O)[C@H]([C@@H](C)CC)NC1=O [compound 14, Cyclo(Ile-Ile)] | No | 105 |  |  |  |
| CC(C)C[C@@H]1NC(=O)[C@H](CC(C)C)NC1=O [compound 15, Cyclo(Leu-Leu)] | No | 95 |  |  |  |
| CC(C)C[C@@H]1NC(=O)[C@H](Cc2ccccc2)NC1=O [compound 16, Cyclo(Leu-Phe)] | No | 105 |  |  |  |
| O=C1N[C@@H](Cc2ccccc2)C(=O)N[C@H]1Cc1ccccc1 [compound 17, cyclo-phenylalanyl-phenylalanine] |  |  | Yes | 203 |  |
| O=C1N[C@@H](Cc2c[nH]c3ccccc23)C(=O)N[C@H]1Cc1ccc(O)cc1 [compound 22, cyclo-tryptophanyl-tyrosine] |  |  | Yes | 203 |  |
| O=C1CNC(=O)C(Cc2c[nH]c3ccccc23)N1 (stereo not shown) [compound 26, cyclo-glycyl-tryptophan] |  |  | Yes | 264 |  |
| O=C1NC(Cc2c[nH]c3ccccc23)C(=O)NC1Cc1ccccc1 (stereo not shown) [compound 28, cyclo-phenylalanyl-tryptophan] |  |  | Yes | 255 |  |
| O=C1N[C@@H](Cc2ccc(O)cc2)C(=O)N[C@H]1CO [compound 29, Cyclo(Ser-Tyr)] | No | 95 |  |  |  |
| O=C1N[C@@H](Cc2ccc(O)cc2)C(=O)N2CCC[C@@H]12 [compound 30, Cyclo(Pro-Tyr)] | No | 95 |  |  |  |
| O=C(O)C[C@@H]1NC(=O)[C@H](Cc2ccccc2)NC1=O [compound 33, Cyclo(Asp-Phe)] | No | 90 |  |  |  |
| O=C1N[C@@H](Cc2cnc[nH]2)C(=O)N[C@H]1Cc1ccccc1 [compound 38, cyclo-histidyl-phenylalanine] |  |  | Yes | 264 |  |
| CC(C)C[C@@H]1NC(=O)[C@H](Cc2c[nH]c3ccccc23)NC1=O [compound 39, cyclo-leucyl-tryptophan] |  |  | Yes | 229 |  |
| O=C1CNC(=O)C(Cc2ccc(O)cc2)N1 (stereo not shown) [compound 42, Cyclo(Tyr-Gly)] |  |  |  |  | Significant difference (p < 0.05) vs control group, plasma active GLP-1 level (Table 10, Experiment 5): No; Plasma active GLP-1 level (relative value to control group as 100), average value (Table 10, Experiment 5): 97 |
| CC(C)C[C@@H]1NC(=O)[C@H](C)NC1=O [compound 44, cyclo-alanyl-leucine] |  |  | Yes | 255 |  |
| O=C1N[C@@H](Cc2ccc(O)cc2)C(=O)N[C@H]1Cc1ccc(O)cc1 [compound 49, Cyclo(Tyr-Tyr)] |  |  |  |  | Significant difference (p < 0.05) vs control group, plasma active GLP-1 level (Table 10, Experiment 5): No; Plasma active GLP-1 level (relative value to control group as 100), average value (Table 10, Experiment 5): 100 |
| CC1NC(=O)C(Cc2ccccc2)NC1=O (stereo not shown) [compound 52, Cyclo(Ala-Phe)] |  |  |  |  | Significant difference (p < 0.05) vs control group, plasma active GLP-1 level (Table 10, Experiment 5): No; Plasma active GLP-1 level (relative value to control group as 100), average value (Table 10, Experiment 5): 93 |
